The source of these data is US4442090A, “Absorption-promoting compounds, compositions thereof with pharmaceuticals and/or bases for rectal administration and method of use” (Kyoto Yakuhin Kogyo Kabushiki Kaisha, priority 1980, dated 1984).

A short description of data set [1]: Urinary excretions of β-lactam antibiotics after rectal suppository (rabbit). Conditions: Compound (I) 5%, Witepsol H-15. Format: in vivo. On the procedure: The absorption into the circulation through the rectum of the rectal suppositories thus prepared was determined by measuring urinary excretion of the pharmacologically-active substance.
Thus, Sarcina lutea and Bacillus subtilis were used as assay organisms for penicillins and cephalosporins, respectively, and the assays were performed by the paper disk method (cultivation at 37° C. for from 15 to 20 hours).

Data set [2] can be described thus: Urinary excretions of AB-PC after administration of AB-PC rectal suppository (human). Format: in vivo. Conditions: AB-PC 125 mg (potency); for Urinary excretions of AB-PC (%) (0-6 hr.): added compound 10%, Witepsol H-15, % of dose; for Urinary excretions (%) 0-2 (hr.) / Urinary excretions (%) 2-4 (hr.) / Urinary excretions (%) 4-6 (hr.) / Urinary excretions (%) Total (0-6 hr.): Compound (I) 10%, Witepsol H-15, Table 3. On the procedure:
The thus-obtained suppositories were administered to healthy adult male humans from the anus, and the urinary excretions of AB-PC were determined.

Take `CCCCCCCCCCCC(=O)N[C@H](C(=O)O)C(C)C` [Compound 25-Na, N--Lauroyl-L-valine]: in data set [1] (Cefmetazole 125 mg (potency)), the “Urinary excretions (%) 0-2 hr.” value was 45.0%, the “Urinary excretions (%) 2-4 hr.” value was determined as 10.0%, the “Urinary excretions (%) 4-6 hr.” value stood at 2.0% and the “Urinary excretions (%) Total (0-6 hr.)” value is reported as 57.0%.
`CCCCCCCCCCNC(=O)/C=C\C(=O)O` [Compound 13-Na, N--(n-Decyl)maleamic acid]: in data set [1] (FK-749 125 mg (potency)), the “Urinary excretions (%) 0-2 hr.” value was 39.1%, the “Urinary excretions (%) 2-4 hr.” value is given as 18.0%, the “Urinary excretions (%) 4-6 hr.” value was 2.1% and the “Urinary excretions (%) Total (0-6 hr.)” value is 59.2%.
`Nc1ccc(C(=O)O)cc1` [P--Aminobenzoic acid Na, P--Aminobenzoic acid, reference compound]: in data set [2], the “Urinary excretions of AB-PC (%) (0-6 hr.)” value was determined as 4.9%.
Same read-out and setting: with `CC(=O)O` [Acetic acid Na, Acetic acid, reference compound] the figure was 3.6%.
Turning to `CCCCCCCC(=O)N(C)c1ccc(C(=O)O)cc1` [Compound 18-Na, N--(n-Caprylyl)-4-methylaminobenzoic acid], in data set [1] (6059-S 125 mg (potency)), the “Urinary excretions (%) 0-2 hr.” value was 42.2%, the “Urinary excretions (%) 2-4 hr.” value was determined as 18.8%, the “Urinary excretions (%) 4-6 hr.” value amounted to 3.6% and the “Urinary excretions (%) Total (0-6 hr.)” value is recorded as 64.6%.
For `O=C(N[C@@H](Cc1ccccc1)C(=O)O)c1ccccc1O` [Compound 19-Na, N--(2-Hydroxybenzoyl)phenylalanine], in data set [1] (6059-S 125 mg (potency)), the “Urinary excretions (%) 0-2 hr.” value turned out to be 38.0%, the “Urinary excretions (%) 2-4 hr.” value was determined as 20.0%, the “Urinary excretions (%) 4-6 hr.” value worked out at 3.1% and the “Urinary excretions (%) Total (0-6 hr.)” value is on record as 61.1%.
Regarding `O=C(O)Cc1ccccc1` [Phenylacetic acid Na, Phenylacetic acid, reference compound], the “Urinary excretions of AB-PC (%) (0-6 hr.)” value in data set [2] is reported as 5.8%.
Turning to `O=C(O)COc1cccc2ccccc12` [Compound 8-Na, α-Napthoxacetic acid], the “Urinary excretions of AB-PC (%) (0-6 hr.)” value in data set [2] stood at 15.1%.
For `CCCCCCCCCC(=O)NCCC(=O)O` [Compound 16-Na, N--(n-Caprinoyl)-β-alanine], in data set [1] (Cefmetazole 125 mg (potency)), the “Urinary excretions (%) 0-2 hr.” value came to 43.1%, the “Urinary excretions (%) 2-4 hr.” value was determined as 19.9%, the “Urinary excretions (%) 4-6 hr.” value stood at 2.9% and the “Urinary excretions (%) Total (0-6 hr.)” value was found to be 69.1%.
Take `CCCCCCCCNC(=O)c1ccccc1C(=O)O` [Compound 14-Na, 2-Carboxy-N--(n-octyl)benzamide]: in data set [1] (FK-749 125 mg (potency)), the “Urinary excretions (%) 0-2 hr.” value stood at 41.2%, the “Urinary excretions (%) 2-4 hr.” value amounted to 19.0%, the “Urinary excretions (%) 4-6 hr.” value turned out to be 1.8% and the “Urinary excretions (%) Total (0-6 hr.)” value was 62.0%.
In the case of `CCCCN(CCCC)C(=O)CCC(=O)O` [Compound 15-Na, N,N--Di-(n-butyl)succinamic acid], in data set [1] (Cefmetazole 125 mg (potency)), the “Urinary excretions (%) 0-2 hr.” value is reported as 44.0%, the “Urinary excretions (%) 2-4 hr.” value turned out to be 20.0%, the “Urinary excretions (%) 4-6 hr.” value is 1.0% and the “Urinary excretions (%) Total (0-6 hr.)” value worked out at 65.9%.
With `CCCCCCCCCCCCCC(=O)N[C@H](C(=O)O)[C@@H](C)O` [Compound 26-Na, N--Myristoyl-L-threonine], in data set [1] (Cefsulodin 125 mg (potency)), the “Urinary excretions (%) 0-2 hr.” value worked out at 41.1%, the “Urinary excretions (%) 2-4 hr.” value came out at 8.2%, the “Urinary excretions (%) 4-6 hr.” value worked out at 0.5% and the “Urinary excretions (%) Total (0-6 hr.)” value amounted to 49.8%. Moreover, in data set [1] (Sulbenicillin 125 mg (potency)), the “Urinary excretions (%) 0-2 hr.” value is recorded as 40.0%, the “Urinary excretions (%) 2-4 hr.” value came to 5.1%, the “Urinary excretions (%) 4-6 hr.” value was 1.0% and the “Urinary excretions (%) Total (0-6 hr.)” value is 46.2%. In addition, in data set [2], the “Urinary excretions (%) 0-2 (hr.)” value came out at 26.1%, the “Urinary excretions (%) 2-4 (hr.)” value was 3.0%, the “Urinary excretions (%) 4-6 (hr.)” value was found to be 0.9% and the “Urinary excretions (%) Total (0-6 hr.)” value was 30.0%.
Turning to `c1ccc2occc2c1` [Benzofurane, reference compound], the “Urinary excretions of AB-PC (%) (0-6 hr.)” value in data set [2] is 1.9%.
Same read-out and setting: the value for `CCCCCCCC(=O)OCC` [Ethyl caprylate, reference compound] was 2.9%.
With `O=C(O)CCCCCCCCCC(=O)O` [Compound 1-Na, 1,9-Nonamethylendicarboxylic acid], in data set [1] (Cephalothin 125 mg (potency)), the “Urinary excretions (%) 0-2 hr.” value was 20.5%, the “Urinary excretions (%) 2-4 hr.” value is listed as 3.0%, the “Urinary excretions (%) 4-6 hr.” value is 0.2% and the “Urinary excretions (%) Total (0-6 hr.)” value stood at 23.7%. In data set [2], the “Urinary excretions of AB-PC (%) (0-6 hr.)” value came to 15.2%.
Consider `c1ccc2nc3ccccc3cc2c1` [Acridine, reference compound], for which, in data set [2], the “Urinary excretions of AB-PC (%) (0-6 hr.)” value came to 2.1%.
In the case of `CCCCCCCCCCCC(=O)N(C)CC(=O)O` [Compound 10-Na, N--Lauroylsarcosine], in data set [1] (Sulbenicillin 125 mg (potency)), the “Urinary excretions (%) 0-2 hr.” value is 33.5%, the “Urinary excretions (%) 2-4 hr.” value stood at 10.0%, the “Urinary excretions (%) 4-6 hr.” value amounted to 1.0% and the “Urinary excretions (%) Total (0-6 hr.)” value was found to be 43.5%.
For the molecule `CCCCCCOc1ccc(C(=O)O)cc1` [Compound 6-Na, p-Hexyloxybenzoic acid], in data set [1] (SCE-1365 125 mg (potency)), the “Urinary excretions (%) 0-2 hr.” value is 45.0%, the “Urinary excretions (%) 2-4 hr.” value is recorded as 18.2%, the “Urinary excretions (%) 4-6 hr.” value stood at 1.8% and the “Urinary excretions (%) Total (0-6 hr.)” value was 65.0%. In data set [2], the “Urinary excretions of AB-PC (%) (0-6 hr.)” value amounted to 21.2%.
As for `CCCCc1ccc(C(=O)O)cc1` [Compound 4-Na, p-Butylbenzoic acid], in data set [1] (Cefsulodin 125 mg (potency)), the “Urinary excretions (%) 0-2 hr.” value was found to be 30.5%, the “Urinary excretions (%) 2-4 hr.” value is 15.0%, the “Urinary excretions (%) 4-6 hr.” value turned out to be 1.1% and the “Urinary excretions (%) Total (0-6 hr.)” value is listed as 45.6%. The “Urinary excretions of AB-PC (%) (0-6 hr.)” value in data set [2] is recorded as 28.6%.
Regarding `CCCCCC(=O)N[C@@H](Cc1ccccc1)C(=O)O` [Compound 21-Na, N--Caproyl-L-phenylalanine], in data set [2], the “Urinary excretions (%) 0-2 (hr.)” value turned out to be 16.8%, the “Urinary excretions (%) 2-4 (hr.)” value is listed as 2.0%, the “Urinary excretions (%) 4-6 (hr.)” value is 1.1% and the “Urinary excretions (%) Total (0-6 hr.)” value is given as 19.9%.
As for `CCCCCCCC(=O)Nc1ccc(C(=O)O)cc1` [Compound 17-Na, N--(n-Caprylyl)-4-aminobenzoic acid], in data set [1] (Cefmetazole 125 mg (potency)), the “Urinary excretions (%) 0-2 hr.” value was 45.0%, the “Urinary excretions (%) 2-4 hr.” value is listed as 21.1%, the “Urinary excretions (%) 4-6 hr.” value came out at 3.0% and the “Urinary excretions (%) Total (0-6 hr.)” value is 64.6%.
For the molecule `CCCCCCCCCCCCCCCC(=O)N[C@@H](CC(=O)O)C(=O)O` [Compound 27-Na, N--Palmitoyl-L-aspartic acid], in data set [1] (Cefotiam 125 mg (potency)), the “Urinary excretions (%) 0-2 hr.” value amounted to 35.2%, the “Urinary excretions (%) 2-4 hr.” value is 6.2%, the “Urinary excretions (%) 4-6 hr.” value is 0.5% and the “Urinary excretions (%) Total (0-6 hr.)” value came to 41.9%. In addition, in data set [2], the “Urinary excretions (%) 0-2 (hr.)” value came to 22.0%, the “Urinary excretions (%) 2-4 (hr.)” value turned out to be 4.1%, the “Urinary excretions (%) 4-6 (hr.)” value came to 0.7% and the “Urinary excretions (%) Total (0-6 hr.)” value worked out at 26.8%.
For `CCCCCCCCCC(=O)OCC` [Ethyl caprate, reference compound], in data set [2], the “Urinary excretions of AB-PC (%) (0-6 hr.)” value is listed as 3.0%.
As for `O=C(O)c1ccccc1O` [Salicylic acid Na, Salicylic acid, reference compound], in data set [2], the “Urinary excretions of AB-PC (%) (0-6 hr.)” value was found to be 9.6%.
For the molecule `O=C(O)c1ccccc1` [Benzoic acid Na, Benzoic acid, reference compound], the “Urinary excretions of AB-PC (%) (0-6 hr.)” value in data set [2] worked out at 5.6%.
Consider `CCCCOc1ccc(C(=O)N[C@@H](Cc2ccccc2)C(=O)O)cc1` [Compound 20-Na, N--(4-Butoxybenzoyl)phenylalanine], for which, in data set [1] (6059-S 125 mg (potency)), the “Urinary excretions (%) 0-2 hr.” value stood at 46.0%, the “Urinary excretions (%) 2-4 hr.” value was 15.2%, the “Urinary excretions (%) 4-6 hr.” value is 4.1% and the “Urinary excretions (%) Total (0-6 hr.)” value was 65.3%.
In the case of `CCCCCC(=O)N[C@@H](Cc1c[nH]c2ccccc12)C(=O)O` [Compound 22-Na, N--Caproyl-L-tryptophan], in data set [1] (Cefazolin 125 mg (potency)), the “Urinary excretions (%) 0-2 hr.” value stood at 40.5%, the “Urinary excretions (%) 2-4 hr.” value turned out to be 16.0%, the “Urinary excretions (%) 4-6 hr.” value is listed as 2.0% and the “Urinary excretions (%) Total (0-6 hr.)” value worked out at 58.5%. Further, in data set [1] (Cephalothin 125 mg (potency)), the “Urinary excretions (%) 0-2 hr.” value came out at 19.5%, the “Urinary excretions (%) 2-4 hr.” value turned out to be 2.5%, the “Urinary excretions (%) 4-6 hr.” value turned out to be 0.2% and the “Urinary excretions (%) Total (0-6 hr.)” value is listed as 22.2%.
On to `CC(=O)NCC(=O)[O-].[Na+]` [N--Acetylglycine Na, N--Acetylglycine, reference compound], for which, in data set [2], the “Urinary excretions of AB-PC (%) (0-6 hr.)” value is recorded as 2.5%.
Take `O=C(O)CCCCCCCCCCCCC(=O)O` [Compound 7-Na, 1,12-Dodecamethylene dicarboxylic acid]: in data set [1] (6059-S 125 mg (potency)), the “Urinary excretions (%) 0-2 hr.” value is given as 42.2%, the “Urinary excretions (%) 2-4 hr.” value is listed as 8.8%, the “Urinary excretions (%) 4-6 hr.” value was found to be 1.0% and the “Urinary excretions (%) Total (0-6 hr.)” value came to 52.0%. The “Urinary excretions of AB-PC (%) (0-6 hr.)” value in data set [2] worked out at 22.6%.
Turning to `CCCCCCCCCCNC(=O)CCC(=O)O` [Compound 12-Na, N--(n-Decyl)succinamic acid], in data set [1] (FK-749 125 mg (potency)), the “Urinary excretions (%) 0-2 hr.” value is given as 40.1%, the “Urinary excretions (%) 2-4 hr.” value is 18.0%, the “Urinary excretions (%) 4-6 hr.” value is recorded as 2.0% and the “Urinary excretions (%) Total (0-6 hr.)” value is on record as 60.1%.
In the case of `O=C(O)CCCCCC(=O)O` [Pimelic acid Na, Pimelic acid, reference compound], the “Urinary excretions of AB-PC (%) (0-6 hr.)” value in data set [2] was found to be 6.0%.
As for `CC1CCC(C(C)C)C(OCC(=O)O)C1` [Compound 11-Na, L-Menthoxyacetic acid], in data set [2], the “Urinary excretions of AB-PC (%) (0-6 hr.)” value came to 20.0%.
